According to patent US9029337B2, “Modulation of factor 7 expression” (Isis Pharmaceuticals, Inc., priority 2007, dated 2015):
Strand notation (5' to 3'): a small letter for the sugar, then the base; units joined by * are phosphorothioate-linked, units joined directly phosphodiester-linked; [ ] holds rarer units or linkages, { } end groups; capitals alone tell only the bases. e = 2'-O-(2-methoxyethyl) (MOE); [5mC] = 5-methylcytosine; d = 2'-deoxy (DNA)

Legend:
human Factor 7 mRNA [1] = experiment: Dose-dependent antisense inhibition of human Factor 7 in HepB3 cells, lipofectin; format: cell-based; conditions: for percent inhibition of Factor 7 mRNA, relative to untreated control cells: HepB3 cells, approx. 16 hours (Table 14); for percent inhibition of Factor 7: approximately 16 hours
In short: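 HepB3 cells (4,000/well) lipofectin-transfected with antisense oligonucleotide at 3.125 or 6.25 up to 100 nM for ~16 h. Factor 7 mRNA measured by real-time RT-PCR with primer probe set RTS 2927, adjusted to RIBOGREEN total RNA; expressed as percent inhibition versus untreated control cells.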

human Factor 7 mRNA [2] = experiment: Antisense inhibition of human Factor 7 mRNA in HepB3 cells, 50 nM antisense oligonucleotide, lipofectin; format: cell-based; conditions: lipofectin, approximately 24 hours
In short: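 4,000 cells/well; ~24 h exposure; RNA isolated; probe set RTS 2927; normalised to RIBOGREEN® total RNA; % inhibition vs untreated.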

[3] = Table 1, 50 nM, relative to untreated control cells
[4] = 50 nM antisense oligonucleotide, Factor 7 mRNA by real-time RT-PCR (RTS 2927), relative to untreated control

407935 (antisense eA*eT*eG*e[5mC]*eA*dT*dG*dG*dT*dG*dA*dT*dG*d[5mC]*dT*eT*e[5mC]*eT*eG*eA) [compound 407935]
percent inhibition of Factor 7 mRNA, relative to untreated control cells (human Factor 7 mRNA [1]; 3.125 nM): 19%
percent inhibition of Factor 7 mRNA, relative to untreated control cells (human Factor 7 mRNA [1]; 12.5 nM): 58%
percent inhibition of Factor 7 mRNA, relative to untreated control cells (human Factor 7 mRNA [1]; 25 nM): 70%
percent inhibition of Factor 7 mRNA, relative to untreated control cells (human Factor 7 mRNA [1]; 50 nM): 85%
percent inhibition of Factor 7 mRNA, relative to untreated control cells (human Factor 7 mRNA [1]; 100 nM): 87%
percent inhibition of Factor 7 mRNA, relative to untreated control cells (human Factor 7 mRNA [1]): 39%
percent inhibition of Factor 7 (human Factor 7 mRNA [1]; Table 3, 3.125 nM): 57%
percent inhibition of Factor 7 (human Factor 7 mRNA [1]; Table 3, 6.25 nM): 76%
percent inhibition of Factor 7 (human Factor 7 mRNA [1]; Table 3, 12.5 nM): 78%
percent inhibition of Factor 7 (human Factor 7 mRNA [1]; Table 3, 25.0 nM): 89%
percent inhibition of Factor 7 (human Factor 7 mRNA [1]; Table 3, 50.0 nM): 90%
percent inhibition of Factor 7 (human Factor 7 mRNA [1]; Table 3, 100.0 nM): 89%
percent inhibition of Factor 7 (human Factor 7 mRNA [1]; Table 7, 6.25 nM): 38%
percent inhibition of Factor 7 (human Factor 7 mRNA [1]; Table 7, 12.5 nM): 53%
percent inhibition of Factor 7 (human Factor 7 mRNA [1]; Table 7, 25.0 nM): 70%
percent inhibition of Factor 7 (human Factor 7 mRNA [1]; Table 7, 50.0 nM): 82%
percent inhibition of Factor 7 (human Factor 7 mRNA [1]; Table 7, 100.0 nM): 86%
% Inhibition (human Factor 7 mRNA [2]; [3]): 94%
% Inhibition (human Factor 7 mRNA [2]; Table 13 (microwalk), 50 nM): 79%
% Inhibition (human Factor 7 mRNA [2]; [4]): 72%

407939 (antisense eT*eG*e[5mC]*eA*eG*d[5mC]*d[5mC]*d[5mC]*dG*dG*d[5mC]*dA*d[5mC]*d[5mC]*d[5mC]*eA*eG*e[5mC]*eG*eA) [compound 407939]
percent inhibition of Factor 7 mRNA, relative to untreated control cells (human Factor 7 mRNA [1]; 3.125 nM): 17%
percent inhibition of Factor 7 mRNA, relative to untreated control cells (human Factor 7 mRNA [1]; 12.5 nM): 57%
percent inhibition of Factor 7 mRNA, relative to untreated control cells (human Factor 7 mRNA [1]; 25 nM): 75%
percent inhibition of Factor 7 mRNA, relative to untreated control cells (human Factor 7 mRNA [1]; 50 nM): 80%
percent inhibition of Factor 7 mRNA, relative to untreated control cells (human Factor 7 mRNA [1]; 100 nM): 83%
percent inhibition of Factor 7 mRNA, relative to untreated control cells (human Factor 7 mRNA [1]): 35%
percent inhibition of Factor 7 (human Factor 7 mRNA [1]; Table 3, 3.125 nM): 62%
percent inhibition of Factor 7 (human Factor 7 mRNA [1]; Table 3, 6.25 nM): 79%
percent inhibition of Factor 7 (human Factor 7 mRNA [1]; Table 3, 12.5 nM): 83%
percent inhibition of Factor 7 (human Factor 7 mRNA [1]; Table 3, 25.0 nM): 91%
percent inhibition of Factor 7 (human Factor 7 mRNA [1]; Table 3, 50.0 nM): 92%
percent inhibition of Factor 7 (human Factor 7 mRNA [1]; Table 3, 100.0 nM): 92%
percent inhibition of Factor 7 (human Factor 7 mRNA [1]; Table 7, 6.25 nM): 37%
percent inhibition of Factor 7 (human Factor 7 mRNA [1]; Table 7, 12.5 nM): 57%
percent inhibition of Factor 7 (human Factor 7 mRNA [1]; Table 7, 25.0 nM): 77%
percent inhibition of Factor 7 (human Factor 7 mRNA [1]; Table 7, 50.0 nM): 84%
percent inhibition of Factor 7 (human Factor 7 mRNA [1]; Table 7, 100.0 nM): 87%
% Inhibition (human Factor 7 mRNA [2]; [3]): 93%
% Inhibition (human Factor 7 mRNA [2]; [4]): 76%
